Measured values published in patent US9394284B2, “Compounds act at multiple prostaglandin receptors giving a general anti-inflammatory response” (Allergan, Inc., priority 2010, dated 2016).

Assays:
[1] = system: allergic conjunctival itch; assay: Allergic conjunctival itch model; assay type: in vivo; details: FIGS. 10 and 11
Procedure: The compounds of this invention were tested according to the method described in “Characterization of Receptor Subtypes Involved in Prostanoid-Induced Conjunctival Pruritis and Their Role in Mediating Conjunctival Itching”, Vol. 279, No. 1, (JPET) 279, 137-142' 1996 for their efficacy in alleviating itch.

[2] = system: Dutch-belted pigmented rabbits; assay: Arachidonate induced uveitis, anterior chamber leukocyte infiltration; assay type: in vivo, rabbit; details: topical, concentrations of 0.1, 0.3 and 1%; sodium arachidonate challenge; FIG. 12
Procedure: Arachidonate Induced Uveitis
The rational for this protocol is to use arachidonate to directly produce ocular anterior segment uveitis, as opposed to using lipopolysaccharide (LPS) to indirectly release arachidonic acid.
Conscious male or female Dutch-belted pigmented rabbits weighing 2.5-3 kg were used for all in vivo slit lamp studies. Four animals were employed per test group. The right eye of each animal receiving 35 μl of topically administered test and the contralateral left eye of each animal receiving 35 μl of topically administered vehicle (t=0 minutes), followed 30 minutes later by treatment with 35 μl of 0.5% sodium arachidonate onto the surface of both eyes (t=30 minutes). Both eyes were examined by slit lamp 60 minutes following sodium arachdionate challenge (t=90 minutes) at 16× magnification under both white light and blue light illumination at an approximate angle of 45° through 1 mm and 5 mm slit widths.
Measurement of Anterior Chamber Leukocyte Infiltration:
Anterior chamber leukocyte infiltration was measured using a numerical scoring system to estimate cell number per field defined by a 5 mm slit width: 0=no cells per field (no response); 1=1-10 cells per field (mild); 2=11-20 cells per field (moderate); 3=[…] cells per field (severe); 4=>50 cells per filed (florid). Results are reported as the mean score value±S.E.M.

Strains TA 98 and TA 100 = assay: Ames Test for mutagenicity; assay type: cell-based
Procedure: The compounds of FIGS. 3 and 3(a) were tested for mutagenicity by means of the Ames Test using Strains TA 98 and TA 100. The results were negative for both compounds.

## CCC(CC)COc1ccc(Br)cc1Cn1nc(CCC(=O)O)cc1C [Example 3, 3-{1-[5-Bromo-2-(2-ethyl-butoxy)-benzyl]-5-methyl-1H-pyrazol-3-yl}-propionic acid]
[1]
  number of itch-scratch episodes: significantly lower number of itch-scratch episodes
[2]
  anterior chamber leukocyte infiltration (uveitis model): dose dependent response
Strains TA 98 and TA 100
  mutagenicity (Ames Test): negative
